Solubility and EC50 data for one molecule are collected here from patent US20240382425A1 (BS BIOTECHNA SPOLKA Z OGRANICZONA ODPOWIEDZIALNOSCIA, priority 2021, published 2024).

The nature of series [1]: Solubility of the deprotonated form of emetine in water. The series is classed as physicochemical. The protocol:
The total volume of titrant utilised was 1.5 mL. The precipitate was centrifuged at 6000 RPM for 20 minutes and separated from the solution. […] The precipitate was dried in a vacuum dryer at 30° C., 100 mbar pressure for 5 h and used in the next synthetic steps.

In series [2] the test system is MERS and SARS coronaviruses. The conditions noted are these: lowest among over 290 drugs tested; cited from earlier work.

≈ marks a conversion by molar mass, not a printed value. Bounds are passed on as bounds.

For orientation: solubility means the concentration that dissolves in the medium under given conditions. By EC50 is commonly meant the concentration that produces a half-maximal response. In turn, `CC[C@H]1CN2CCc3cc(OC)c(OC)cc3[C@@H]2C[C@@H]1C[C@H]1NCCc2cc(OC)c(OC)cc21` [emetine] displayed a solubility in series [1] of 1790 µg/mL (≈ 3.72 mM). Further, in series [2], the EC50 is under 20 nM.
